Results taken from article PMC3128011, “Central nervous system exposure of next generation quinoline methanols is reduced relative to mefloquine after intravenous dosing in mice” (Malaria Journal, 2011).
Values after ≈ are worked out from the molar mass of the structure shown. Where two headings read alike, the source gives them in different places.

Tests used:
[1] = Brain and plasma concentrations after IV dosing in mice (LCMS/MS); free brain level from equilibrium dialysis fu; format: in vivo; conditions: male FVB mice, IV 5 mg/kg; for Maximum whole brain concentration: sampled 5 min, 1, 6, 24 h; for Maximum free brain concentration: whole brain concentration x fu from brain homogenate equilibrium dialysis; for remaining at 24 h: mouse, plasma, 24 h relative to the 5 minute time point, read-out: Residual plasma concentration at 24 h (24h % Remaining)
Procedure: All in vivo studies were conducted in accordance with protocols approved by the Victorian College of Pharmacy, Animal Ethics Committee. Male, six week old FVB mice were obtained from the Animals Resources Center (Perth, Western Australia) and provided with food and water ad libitum. Mice were administered a 50 μL bolus injection of mefloquine, its enantiomers or one of twenty five quinoline methanol compounds by tail vein injection (dosing solution concentration 2.8 mg/ml) for a nominal dose of 5 mg/kg. The compounds were prepared in 5% DMSO in 5% glucose solution buffered to a pH of 3-5 using citrate or acetate as appropriate based on an assessment of the lipophilicity and pKa of the compound. At 5 min, 1 h, 6 h or 24 h post-dosing, mice were anaesthetized with inhaled isoflurane (3%) approximately 3-4 minutes prior to blood and brain harvest. Blood was collected by cardiac puncture from groups of 2-3 mice and the whole brain was removed. The whole brains were placed into preweighed polypropylene vials and snap frozen prior to storage along with the plasma samples at -20°C until analysis. On the day of analysis, the whole brain was homogenized in three parts of aqueous solution containing 0.1 M EDTA and 0.4 g/L KF (inhibitors of hydrolytic enzymes to reduce the potential for ex vivo tissue-mediated degradation of the test compounds). Calibration standards were prepared by spiking blank brain homogenate and blank plasma with the test compound. Both samples and standards were processed by adding acetonitrile (to precipitate proteins) and centrifuged to separate the supernatant for analysis. An aliquot of the supernatant from each brain homogenate and plasma samples were analysed by UPLC/MS/MS on either a Quattro Premier XE, a Quattro Ultima Pt or a Xevo XT Mass Spectrometer (Waters Corporation, USA).
The unbound fraction of each analog in mouse brain homogenate was determined in vitro using equilibrium dialysis according to methodology reported previously. In brief, a 96 well equilibrium dialysis apparatus was used to determine the unbound fraction in brain homogenate for each compound (HT Dialysis LLC, Gales Ferry, CT). Membranes (12-14 kDA cut-off) were conditioned in deionized water for 60 minutes, followed by conditioning in 80:20 deionized water:ethanol for 20 minutes, and then rinsed in artificial cerebrospinal fluid (CSF) before use. Mouse brain was removed from the freezer and allowed to thaw on the day of experiment. Thawed brain tissue was then homogenized with artificial CSF to a final composition of 1:2 brain:artificial CSF using a Covaris S2 (K Biosciences, Hoddesdon, UK). Diluted brain homogenate was then spiked with the test compound (10 ug/g), and 150 μL aliquots (n = 6 replicate determinations) loaded into the 96-well equilibrium dialysis plate. Dialysis vs artificial CSF (150 μL) was carried out for 5 hours in a temperature controlled incubator at ca. 37°C (Barworld Scientific Ltd, UK) using an orbital microplate shaker at 125 revolutions/minute (Barworld scientific Ltd, UK). At the end of the incubation period, aliquots of brain homogenate or artificial CSF were transferred to micronic tubes (Micronic B.V., the Netherlands) and the composition in each tube balanced with control fluid, such that the volume of artificial CSF to brain was the same. Sample extraction was performed by the addition of 400 μL of acetonitrile containing an appropriate internal standard. Samples were allowed to mix for 1 minute and then centrifuged at 3000 rpm in 96-well blocks for 15 minutes (Allegra X12-R, Beckman Coulter, USA). All samples were then analysed by UPLC/MS/MS on a Quattro Premier XE Mass Spectrometer (Waters Corporation, USA). The unbound fraction in brain was determined as the ratio of the peak area in artificial CSF to that in brain, with correction for dilution factor according to eq.1 [14].(1) [drawing 1] […]

[2] = test system: P. falciparum strain W2; test: Plasmodium falciparum susceptibility assay (labeled hypoxanthine); format: cell-based; conditions: for IC90: Plasmodium falciparum; for Potency against P. falciparum in words: in vitro
Procedure: The in vitro activities of quinoline methanols against P. falciparum strains W2, D6, TM91C235, and TM90C2A were evaluated using the traditional labeled hypoxanthine assay of Desjardins et al as modified by Milhous et al. These four P. falciparum strains were selected since they have various levels of resistance to conventional anti-malarials. W2 is chloroquine resistant and mefloquine sensitive, D6 is chloroquine sensitive but naturally less susceptible to mefloquine, TM91C235 is resistant to mefloquine, chloroquine, and pyrimethamine as is TM90C2A, however this latter parasite is a two pfmdr1 copy strain (pfmdr1 amplification has been associated with clinical mefloquine resistance). Mefloquine is routinely screened in these assays to ensure the validity. Historical values for mefloquine against all the strains are reported elsewhere. The focus of this study was the mefloquine-sensitive strain W2, however values for the other strains for all the compounds are reported in the Supplementary Information.

[3] = Half-life after oral dosing (data not shown); format: in vivo

SMILES	Maximum whole brain concentration [1] [ng/g]	Maximum free brain concentration [1] [ng/g]	remaining at 24 h [1] [%]	Potency against P. falciparum in words [2]	Brain concentrations (free and whole) relative to mefloquine, in words [1]	other results
O[C@H](c1cc(C(F)(F)F)nc2c(C(F)(F)F)cccc12)[C@@H]1CCCCN1 (single isomer, unassigned) [(+) mefloquine enantiomer, reference compound]	1159	2.5	–	–	–	–
OC(c1cc(C(F)(F)F)nc2c(C(F)(F)F)cccc12)C1CCCCN1 (single isomer, unassigned; (-)) [(-) mefloquine enantiomer, reference compound]	–	–	–	–	–	Maximum whole brain concentration ([1]; 5 mg/kg): 2249 ng/g; Maximum free brain concentration ([1]; 5 mg/kg): 5.2 ng/g
OC(c1cc(C(F)(F)F)nc2c(C(F)(F)F)cccc12)C1CCCCN1 (centres unmarked) [Mefloquine, mefloquine]	–	–	35	–	–	IC90 ([2]; mefloquine-sensitive W2 strain of P. falciparum, read-out: IC90 W2): 0.01 µg/mL (≈ 0.0264 µM); Maximum whole brain concentration ([1]; listed as MQ, 5 mg/kg): 1807 ng/g; Maximum free brain concentration ([1]; listed as MQ, 5 mg/kg): 4.9 ng/g
CCCCNCC(O)c1cc(C(F)(F)F)nc2c(C(F)(F)F)cccc12 (centres unmarked) [WR177000]	–	–	–	most active	much higher	–
CNCC(O)c1cc(C(F)(F)F)nc2c(C(F)(F)F)cccc12 (centres unmarked) [WR308245]	–	–	–	most active	much higher	–
CN(C)CC(O)c1cc(C(F)(F)F)nc2c(C(F)(F)F)cccc12 (centres unmarked) [WR308246]	–	–	–	most active	much higher	–
CC(C)NCC(O)c1cc(C(F)(F)F)nc2c(C(F)(F)F)cccc12 (centres unmarked) [WR308257]	–	–	–	most active	much higher	–
OC(CN1CCCCC1)c1cc(C(F)(F)F)nc2c(C(F)(F)F)cccc12 (centres unmarked) [WR308265]	–	–	–	most active	much higher	–
CSCCCNCC(O)c1cc(C(F)(F)F)nc2c(C(F)(F)F)cccc12 (centres unmarked) [WR308278]	–	–	–	most active	much higher	–
CCC(C)CNCC(O)c1cc(C(F)(F)F)nc2c(C(F)(F)F)cccc12 (centres unmarked) [WR308387]	–	–	–	most active	much higher	–
OC(CNCCNCc1ccccc1)c1cc(C(F)(F)F)nc2c(C(F)(F)F)cccc12 (centres unmarked) [WR308396]	1768	3.5	4.6	acceptable potency	–	IC90 ([2]; W2, read-out: IC90 W2): 0.006 µg/mL (≈ 0.0131 µM)
COCCNCC(O)c1cc(C(F)(F)F)nc2c(C(F)(F)F)cccc12 (centres unmarked) [WR308412]	–	–	–	most active	much higher	–
OC(CNC1CCNC1)c1cc(C(F)(F)F)nc2c(C(F)(F)F)cccc12 (centres unmarked) [WR308781]	689	5.6	3.3	–	–	IC90 ([2]; W2, read-out: IC90 W2): > 0.5 µg/mL
OC(CNC1CCCNC1)c1cc(C(F)(F)F)nc2c(C(F)(F)F)cccc12 (centres unmarked) [WR318744]	593	3.5	17	–	–	IC90 ([2]; W2, read-out: IC90 W2): > 0.5 µg/mL
CCCCNCCNCC(O)c1cc(C(F)(F)F)nc2c(C(F)(F)F)cccc12 (centres unmarked) [WR318746]	431	3.8	2.4	–	–	IC90 ([2]; W2, read-out: IC90 W2): 0.069 µg/mL (≈ 0.163 µM)
OC(CNCC12CCC(C1)NC2)c1cc(C(F)(F)F)nc2c(C(F)(F)F)cccc12 (centres unmarked) [WR319535]	145	0.45	2.7	modest potency	acceptable	Half-life relative to mefloquine [3]: longer than mefloquine
